Here are results for one compound from patent publication US11331271B2, “Buccal, sublingual and intranasal delivery of fospropofol” (The Johns Hopkins University, priority 2016, dated 2022).

In this experiment the test system is rat chronic constrictive injury model of neuropathic pain. The experiment can be described thus: Neuropathic pain studies in rats (thermal hyperalgesia, withdrawal latency). Type of experiment: in vivo. The following applies: for alleviation of thermal hyperalgesia: 45-60 min post-dose; for time course of analgesic effect: tested 1, 2 and 4 h after dosing. As to the method:
This study was performed as previously described (Vornov, et al., 2013). In brief, male Sprague-Dawley rats (200-250 g) were anesthetized with halothane. The common sciatic nerve on one hind limb was exposed by separating the biceps femoris from the gluteus superficialis. The nerve was subsequently isolated from the surrounding tissue and four ligatures (4.0 chromic gut) were tied loosely around it with about 1-mm spacing. On the other hind limb of the rat, the nerve was similarly isolated but no ligatures were placed, (sham surgery). Thermal pain sensitivity was evaluated using a plantar test apparatus according to previous methods (Hargreaves, et al., 1988). In brief, this involved applying a constant infrared stimulus to the plantar surface of the hind paw using a Basile Plantar apparatus (Ugo Basile, Vaarese, Italy). Withdrawal latency was measured as the time taken for the rat to withdraw its paw from the heat source to the nearest 0.1 s. The “difference score” was calculated by subtracting the average latency of the non-ligated versus ligated side. Animals were habituated to the test chambers (clear plastic compartment maintained in a quiet room) for several hours over 3-4 days, prior to any measurement. Baseline hyperalgesia was recorded 10-12 days post-surgery after the habituation. On test day, each animal received either fospropofol (50, 75 or 100 mg/kg) or vehicle (distilled water) via oral gavage in a volume of 2 mL/kg in a randomized and blinded fashion. Withdrawal latency measurements were then recorded five times for both the operated and sham hind paws of each rat starting from 45 to 60 min post dose. The final latency measurement represents a mean of the last four out of a total of five responses, each being taken at least 5 min apart on the same paw. The difference in response latency for each rat for each leg was calculated and used to determine the mean latency difference response time for each group.

“Also recorded” adds a separate entry of the source.

With `CC(C)c1cccc(C(C)C)c1OCOP(=O)(O)O` [fospropofol], the “alleviation of thermal hyperalgesia” value by setting is: (75 mg/kg PO) “active in alleviating thermal hyperalgesia; also recorded: effective in reducing hyperalgesia”; (100 mg/kg PO) “active in alleviating thermal hyperalgesia; also recorded: effective in reducing hyperalgesia”. Moreover, the “time course of analgesic effect” value is, setting by setting: (75 mg/kg PO) “losing activity by 2 h”; (75 mg/kg PO, listed as Fospropofol) “effective only when tested at 1 h”. Under “1 hour after oral fospropofol”, the “absolute latency of the ligated side vs vehicle” value is “dose dependent increase”. Besides, the “withdrawal latency on sham (non-ligated) side vs vehicle” value (PO fospropofol) was “no change in latencies; also recorded: did not change”.
